# pEC50: −log10 of the molar value.
# System: Dengue-2 (Strain New Guinea C)
# Test: Dengue-2 viral yield assay in Vero cells
# Format: cell-based
# Conditions: Dengue virus, Vero, 48 h, read-out: Activity (anti-dengue 2 viral activity, EC50)
# Description: Compounds that were active in the primary screen were tested for activity in viral yield assays. […] Vero cells in 12-well plates were infected with dengue-2 virus at a multiplicity of infection (MOI) of 0.1, treated with compound (or DMSO as a control), incubated at 37° C., harvested 48 hours post infection and titered on Vero cells as described above. The EC50 was calculated through ExcelFit. Those compounds with activity below 1 μM are indicated with “A”, those with activity between 1 and 10 μM are indicated with “B”, and those with activity between 10 and 25 μM with “C”.
row,Compound,pEC50
1,"O=C(Nc1ccc2nc(SCC(=O)N3CCOCC3)sc2c1)c1ccccc1 [Compound 21, N-[2-(2-Morpholin-4-yl-2-oxo-ethylsulfanyl)-benzothiazol-6-yl]-benzamide]",< 4.60
2,"COc1ccccc1C(=O)Nc1ccc2nc(SCC(=O)N3CCOCC3)sc2c1 [Compound 28, 2-Methoxy-N-[2-(2-morpholin-4-yl-2-oxo-ethylsulfanyl)-benzothiazol-6-yl]-benzamide]",< 4.60
3,"O=C(CSc1nc2ccccc2s1)N1CCCCC1 [Compound 41, 2-(Benzothiazol-2-ylsulfanyl)-1-piperidin-1-yl-ethanone]",< 4.60
4,"CC1CCN(C(=O)CSc2nc3ccccc3[nH]2)CC1 [Compound 44, 2-(1H-Benzoimidazol-2-ylsulfanyl)-1-(4-methyl-piperidin-1-yl)-ethanone]",< 4.60
5,"O=C(CSc1nc2ccccc2[nH]1)N1CCN(c2ccccc2)CC1 [Compound 46, 2-(1H-Benzoimidazol-2-ylsulfanyl)-1-(4-phenyl-piperazin-1-yl)-ethanone]",< 4.60
6,"O=C(O)c1ccc2oc(SCC(=O)N3CCCCC3)nc2c1 [Compound 48, 2-(2-oxo-2-piperidin-1-yl-ethylsulfanyl)-benzooxazole-5-carboxylic acid]",< 4.60

# Same assay, conditions: Dengue virus; Dengue-2 strain New Guinea C, Vero cells, MOI 0.1, harvested 48 hours post infection, viral yield; read-out: Activity (anti-dengue 2 viral activity, EC50)
row,Compound,pEC50
1,"CCCCOc1ccc(C(=O)Nc2ccc3nc(SCC(=O)N4CCOCC4)sc3c2)cc1 [Compound 22, 4-Butoxy-N-[2-(2-morpholin-4-yl-2-oxo-ethylsulfanyl)-benzothiazol-6-yl]-benzamide]",< 4.60
2,"O=C(CSc1nc2ccc(/N=C/c3ccc(Sc4nnnn4-c4ccccc4)o3)cc2s1)N1CCOCC1 [Compound 23, 1-Morpholin-4-yl-2-(6-{[1-[5-(1-phenyl-1H-tetrazol-5-ylsulfanyl)-furan-2-yl]-meth-(E)-ylidene]-amino}-benzothiazol-2-ylsulfanyl)-ethanone]",< 4.60
3,"O=C(CSc1nc2ccc(/N=C/c3c(Cl)cccc3Cl)cc2s1)N1CCOCC1 [Compound 24, 2-(6-{[1-(2,6-Dichloro-phenyl)-meth-(E)-ylidene]-amino}-benzothiazol-2-ylsulfanyl)-1-morpholin-4-yl-ethanone]",< 4.60
4,"O=C(CSc1nc2ccc(/N=C/c3ccc(I)cc3)cc2s1)N1CCOCC1 [Compound 25, 2-(6-{[1-(4-Iodo-phenyl)-meth-(E)-ylidene]-amino}-benzothiazol-2-ylsulfanyl)-1-morpholin-4-yl-ethanone]",< 4.60
5,"O=C(CSc1nc2ccc(/N=C/c3ccc(F)cc3)cc2s1)N1CCOCC1 [Compound 26, 2-(6-{[1-(4-Fluoro-phenyl)-meth-(E)-ylidene]-amino}-benzothiazol-2-ylsulfanyl)-1-morpholin-4-yl-ethanone]",< 4.60
6,"O=C(Nc1ccc2nc(SCC(=O)N3CCOCC3)sc2c1)c1ccccc1F [Compound 27, 2-Fluoro-N-[2-(2-morpholin-4-yl-2-oxo-ethylsulfanyl)-benzothiazol-6-yl]-benzamide]",< 4.60
7,"O=C(Nc1ccc2nc(SCC(=O)N3CCOCC3)sc2c1)c1ccc(Cl)c(Cl)c1 [Compound 29, 3,4-Dichloro-N-[2-(2-morpholin-4-yl-2-oxo-ethylsulfanyl)-benzothiazol-6-yl]-benzamide]",< 4.60
8,"CCN(CC)C(=O)CSc1nc2ccc(N3C(=O)c4ccccc4C3=O)cc2s1 [Compound 30, 2-[6-(1,3-Dioxo-1,3-dihydro-isoindol-2-yl)-benzothiazol-2-ylsulfanyl]-N,N-diethyl-acetamide]",< 4.60
9,"Nc1ccc2nc(SCC(=O)Nc3ccc4nc(SCC(=O)N5CCOCC5)sc4c3)sc2c1 [Compound 31, 2-(6-Amino-benzothiazol-2-ylsulfanyl)-N-[2-(2-morpholin-4-yl-2-oxo-ethylsulfanyl)-benzothiazol-6-yl]-acetamide]",< 4.60
10,"O=C(Nc1ccc2nc(SCC(=O)N3CCOCC3)sc2c1)C1CCCCC1 [Compound 32, Cyclohexanecarboxylic acid [2-(2-morpholin-4-yl-2-oxo-ethylsulfanyl)-benzothiazol-6-yl]-amide]",< 4.60
11,"Cn1ccnc1SCC(=O)Nc1ccc2nc(SCC(=O)N3CCOCC3)sc2c1 [Compound 33, 2-(1-Methyl-1H-imidazol-2-ylsulfanyl)-N-[2-(2-morpholin-4-yl-2-oxo-ethylsulfanyl)-benzothiazol-6-yl]-acetamide]",< 4.60
12,"O=C(CSc1nc2ccccc2s1)Nc1ccc2nc(SCC(=O)N3CCOCC3)sc2c1 [Compound 34, 2-(Benzothiazol-2-ylsulfanyl)-N-[2-(2-morpholin-4-yl-2-oxo-ethylsulfanyl)-benzothiazol-6-yl]-acetamide]",< 4.60
13,"O=C(CSc1nnc(-c2ccccc2)n1-c1ccccc1)Nc1ccc2nc(SCC(=O)N3CCOCC3)sc2c1 [Compound 35, 2-(4,5-Diphenyl-4H-[1,2,4]triazol-3-ylsulfanyl)-N-[2-(2-morpholin-4-yl-2-oxo-ethylsulfanyl)-benzothiazol-6-yl]-acetamide]",< 4.60
14,"Cn1c(Cc2cccc3ccccc23)nnc1SCC(=O)Nc1ccc2nc(SCC(=O)N3CCOCC3)sc2c1 [Compound 36, 2-(4-Methyl-5-naphthalen-1-ylmethyl-4H-[1,2,4]triazol-3-ylsulfanyl)-N-[2-(2-morpholin-4-yl-2-oxo-ethylsulfanyl)-benzothiazol-6-yl]-acetamide]",< 4.60
15,"Cn1c(SCC(=O)Nc2ccc3nc(SCC(=O)N4CCOCC4)sc3c2)nnc1-c1ccccc1 [Compound 37, 2-(4-Methyl-5-phenyl-4H-[1,2,4]triazol-3-ylsulfanyl)-N-[2-(2-morpholin-4-yl-2-oxo-ethylsulfanyl)-benzothiazol-6-yl]-acetamide]",< 4.60
16,"O=C(Cc1cccc2ccccc12)Nc1ccc2nc(SCC(=O)N3CCOCC3)sc2c1 [Compound 38, N-[2-(2-Morpholin-4-yl-2-oxo-ethylsulfanyl)-benzothiazol-6-yl]-2-naphthalen-1-yl-acetamide]",< 4.60
17,"CCOc1ccc2nc(SCC(=O)N3CCN(c4nc5ccccc5s4)CC3)sc2c1 [Compound 39, 1-(4-Benzothiazol-2-yl-piperazin-1-yl)-2-(6-ethoxy-benzothiazol-2-ylsulfanyl)-ethanone]",< 4.60
18,"Nc1ccc2nc(SCC(=O)N3CCN(c4nc5ccccc5s4)CC3)sc2c1 [Compound 40, 2-(6-Amino-benzothiazol-2-ylsulfanyl)-1-(4-benzothiazol-2-yl-piperazin-1-yl)-ethanone]",< 4.60
19,"O=C(CSc1nc2ccccc2[nH]1)N1CCOCC1 [Compound 42, 2-(1H-Benzoimidazol-2-ylsulfanyl)-1-morpholin-4-yl-ethanone]",< 4.60
20,"O=C(CSc1nc2ccccc2[nH]1)N1CCCCCC1 [Compound 43, 1-Azepan-1-yl-2-(1H-benzoimidazol-2-ylsulfanyl)-ethanone]",< 4.60
21,"O=C(CSc1nc2ccccc2[nH]1)N1CCCC1 [Compound 45, 2-(1H-Benzoimidazol-2-ylsulfanyl)-1-pyrrolidin-1-yl-ethanone]",< 4.60
22,"O=C(CSc1nc2ccccc2o1)N1CCc2ccccc2C1 [Compound 47, 2-(Benzooxazol-2-ylsulfanyl)-1-(3,4-dihydro-1H-isoquinolin-2-yl)-ethanone]",< 4.60
23,"O=C(CSc1nc2ccc([N+](=O)[O-])cc2s1)N1CCCCC1 [Compound 49, 2-(6-Nitro-benzothiazol-2-ylsulfanyl)-1-piperidin-1-yl-ethanone]",< 4.60

# Reference: US9029376B2, “Small molecule inhibitors for the treatment or prevention of dengue virus infection” (Siga Technologies, Inc., priority 2008, dated 2015)
